Legend:
pigweed = test: Test B pre/postemergence pigweed; assay type: in vivo, Amaranthus retroflexus
Method in brief: (§1)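 Response is a visual 0-to-10 score relative to untreated plants, where 0 means no effect and 10 means complete control, taken twelve to sixteen days after application. Treatments went onto soil at planting and onto foliage of 1- to 4-leaf plants, using a surfactant-containing non-phytotoxic solvent.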

sugar beet = test: Test B pre/postemergence sugar beet; assay type: in vivo, Beta vulgaris
Method in brief: as §1

soybean = test: Test B pre/postemergence soybean; assay type: in vivo, Glycine max
Method in brief: as §1

rape = test: Test B pre/postemergence rape; assay type: in vivo, Brassica napus
Method in brief: as §1

[1] = Postemergence, Rate 250 g/ha, scale 0 to 10, 0 is no effect, 10 is complete control
[2] = Postemergence, Rate 500 g/ha, scale of 0 to 10 where 0 is no effect and 10 is complete control
[3] = Preemergence, Rate 62 g/ha, scale 0 to 10 (0 no effect, 10 complete control)
[4] = Preemergence, Rate 125 g/ha, scale of 0 to 10 where 0 is no effect and 10 is complete control
[5] = Preemergence, Rate 250 g/ha, scale of 0 to 10 where 0 is no effect and 10 is complete control
[6] = Preemergence, Rate 500 g/ha, scale of 0 to 10 where 0 is no effect and 10 is complete control
[7] = Rate 62 g/ha, Postemergence, scale of 0 to 10 where 0 is no effect and 10 is complete control
[8] = Preemergence, Rate 250 g/ha, scale 0 to 10, 0 is no effect, 10 is complete control
[9] = Preemergence, Rate 500 g/ha, scale 0 to 10, 0 is no effect, 10 is complete control
[10] = Rate 125 g/ha, Postemergence, scale 0 to 10, 0 is no effect, 10 is complete control

SMILES	Plant response rating, Redroot pigweed (pigweed; [1])	Redroot pigweed plant response rating (pigweed; [2])	Plant response rating, Redroot pigweed (pigweed; [3])	Plant response rating, Redroot pigweed (pigweed; [4])	Plant response rating, Sugarbeets (sugar beet; [1])	Sugarbeets plant response rating (sugar beet; [2])	Plant response rating, Sugarbeets (sugar beet; [3])	Plant response rating, Sugarbeets (sugar beet; [4])	Plant response rating, Soybean (soybean; [1])	Soybean plant response rating (soybean; [2])	Plant response rating, Soybean (soybean; [3])	Plant response rating, Soybean (soybean; [4])	Plant response rating, Rape (rape; [1])	Plant response rating, Rape (rape; [3])	Plant response rating, Rape (rape; [4])	Redroot pigweed plant response rating (pigweed; [8])	Redroot pigweed plant response rating (pigweed; [9])	Sugarbeets plant response rating (sugar beet; [8])	Sugarbeets plant response rating (sugar beet; [9])	Soybean plant response rating (soybean; [8])	other results
CC(C)N(C(=O)n1oc(=O)n(C(C)Cl)c1=O)c1ccc(F)cc1 (stereo not shown) [Compound 393]	0	0	0	2	0	7	0	2	2	2	0	0	3	0	0						Redroot pigweed plant response rating (pigweed; [5]): 2; Redroot pigweed plant response rating (pigweed; [6]): 10; Redroot pigweed plant response rating (pigweed; [7]): 0; Sugarbeets plant response rating (sugar beet; [5]): 2; Sugarbeets plant response rating (sugar beet; [6]): 3; Sugarbeets plant response rating (sugar beet; [7]): 0; Soybean plant response rating (soybean; [5]): 0; Soybean plant response rating (soybean; [6]): 0; Soybean plant response rating (soybean; [7]): 1; Rape plant response rating (rape; [5]): 0; Rape plant response rating (rape; [6]): 0
CC(C)N(C(=O)n1oc(=O)n(CCCC(F)(F)F)c1=O)c1ccc(F)cc1 [Compound 398]	3	5	2	5	0	0	0	4	4	6	0	0	2	0	3	10	10	4	9	0	Redroot pigweed plant response rating (pigweed; [7]): 0; Sugarbeets plant response rating (sugar beet; [7]): 0; Soybean plant response rating (soybean; [9]): 0; Soybean plant response rating (soybean; [7]): 3; Rape plant response rating (rape; [2]): 2; Rape plant response rating (rape; [8]): 8; Rape plant response rating (rape; [9]): 10; Rape plant response rating (rape; [7]): 0
C=CC[Si](C)(C)Cn1c(=O)on(C(=O)N(c2ccc(Cl)cc2)C(C)C)c1=O [Compound 414]	0	0	0	0	0	0	0	0	2	3	0	0	0	0	0	0	0	0	0	0	Soybean plant response rating (soybean; [9]): 0; Rape plant response rating (rape; [2]): 0; Rape plant response rating (rape; [8]): 0; Rape plant response rating (rape; [9]): 0
CSCCn1c(=O)on(C(=O)N(c2ccccc2)C(C)C)c1=O [Compound 419]	0	0	0	0	0	0	0	0	3	3	0	0	0	0	0	6	10	3	5	0	Soybean plant response rating (soybean; [9]): 0; Rape plant response rating (rape; [2]): 0; Rape plant response rating (rape; [8]): 2; Rape plant response rating (rape; [9]): 2
CC(C)N(C(=O)n1oc(=O)n(CCl)c1=O)c1ccc(Cl)cc1 [Compound 422]	0	0	0	0	0	0	0	0	3	4	0	0	0	0	0	0	0	0	0	0	Redroot pigweed plant response rating (pigweed; [10]): 0; Sugarbeets plant response rating (sugar beet; [10]): 0; Soybean plant response rating (soybean; [9]): 0; Soybean plant response rating (soybean; [10]): 3; Rape plant response rating (rape; [2]): 0; Rape plant response rating (rape; [8]): 0; Rape plant response rating (rape; [9]): 0; Rape plant response rating (rape; [10]): 0
